Source: PMC2132544 (The Journal of Cell Biology, 1997)
Read-outs that look alike come from different tables or passages of the source.

Legend:
[1] = tested on: Shigella flexneri intracellular motility in PtK2 cells; conditions: cited from earlier work
[2] = tested on: Shigella flexneri intracellular motility in PtK2 cells; assay type: cell-based
[3] = microinjected peptide, ref Zeile et al. (1996)

Molecule: FEFPPPPTDE [ActA ABM-1 peptide]
- effect on Shigella motility [1, 3]: arrested intracellular Shigella motility

Molecule: Gly-Pro-Pro-Pro-Pro Pro [ABM-2 peptide]
- effect on Shigella motility [1, 3]: blocks Shigella actin-based motility

Molecule: poly- L-proline [poly-L-proline]
- effect on Shigella motility ([1]; poly-L-proline intracellular concentration 1 μM, ref Zeile et al., 1996): failed to inhibit motility

B1: full-length vinculin: Full-length 120-kD human platelet vinculin (protein, UniProt P18206 1-1134, looked up)
Vinculin: MPVFHTRTIESILEPVAQQISHLVIMHEEGEVDGKAIPDLTAPVAAVQAAVSNLVRVGKETVQTTEDQILKRDMPPAFIKVENACTKLVQAAQMLQSDPYSVPARDYLIDGSRGILSGTSDLLLTFDEAEVRKIIRVCKGILEYLTVAEVVETMEDLVTYTKNLGPGMTKMAKMIDERQQELTHQEHRVMLVNSMNTVKELLPVLISAMKIFVTTKNSKNQGIEEALKNRNFTVEKMSAEINEIIRVLQLTSWDEDAWASKDTEAMKRALASIDSKLNQAKGWLRDPSASPGDAGEQAIRQILDEAGKVGELCAGKERREILGTCKMLGQMTDQVADLRARGQGSSPVAMQKAQQVSQGLDVLTAKVENAARKLEAMTNSKQSIAKKIDAAQNWLADPNGGPEGEEQIRGALAEARKIAELCDDPKERDDILRSLGEISALTSKLADLRRQGKGDSPEARALAKQVATALQNLQTKTNRAVANSRPAKAAVHLEGKIEQAQRWIDNPTVDDRGVGQAAIRGLVAEGHRLANVMMGPYRQDLLAKCDRVDQLTAQLADLAARGEGESPQARALASQLQDSLKDLKARMQEAMTQEVSDVFSDTTTPIKLLAVAATAPPDAPNREEVFDERAANFENHSGKLGATAEKAAAVGTANKSTVEGIQASVKTARELTPQVVSAARILLRNPGNQAAYEHFETMKNQWIDNVEKMTGLVDEAIDTKSLLDASEEAIKKDLDKCKVAMANIQPQMLVAGATSIARRANRILLVAKREVENSEDPKFREAVKAASDELSKTISPMVMDAKAVAGNISDPGLQKSFLDSGYRILGAVAKVREAFQPQEPDFPPPPPDLEQLRLTDELAPPKPPLPEGEVPPPRPPPPEEKDEEFPEQKAGEVINQPMMMAARQLHDEARKWSSKPGIPAAEVGIGVVAEADAADAAGFPVPPDMEDDYEPELLLMPSNQPVNQPILAAAQSLHREATKWSSKGNDIIAAAKRMALLMAEMSRLVRGGSGTKRALIQCAKDIAKASDEVTRLAKEVAKQCTDKRIRTNLLQVCERIPTISTQLKILSTVKATMLGRTNISDEESEQATEMLVHNAQNLMQSVKETVREAEAASIKIRTDAGFTLRWVRKTPWYQ
- effect on bacterial migration speeds ([2]; estimated intracellular 0.12 μM (identical to p90)): failed to cause any significant change
- effect on Shigella intracellular motility ([2]; needle concentration 2.2 μM, estimated intracellular concentration 0.22 μM): failed to accelerate
